This note sets out measurements from ChEMBL document CHEMBL5291721, “A preclinical secondary pharmacology resource illuminates target-adverse drug reaction associations of marketed drugs” (Nat Commun, 2023).

The target of one test is Bile salt export pump (Homo sapiens, UniProt O95342). The class given is functional.
In a further test the target is T1, Androgen receptor (Homo sapiens, UniProt P10275).
T1 sequence (P10275 whole entry): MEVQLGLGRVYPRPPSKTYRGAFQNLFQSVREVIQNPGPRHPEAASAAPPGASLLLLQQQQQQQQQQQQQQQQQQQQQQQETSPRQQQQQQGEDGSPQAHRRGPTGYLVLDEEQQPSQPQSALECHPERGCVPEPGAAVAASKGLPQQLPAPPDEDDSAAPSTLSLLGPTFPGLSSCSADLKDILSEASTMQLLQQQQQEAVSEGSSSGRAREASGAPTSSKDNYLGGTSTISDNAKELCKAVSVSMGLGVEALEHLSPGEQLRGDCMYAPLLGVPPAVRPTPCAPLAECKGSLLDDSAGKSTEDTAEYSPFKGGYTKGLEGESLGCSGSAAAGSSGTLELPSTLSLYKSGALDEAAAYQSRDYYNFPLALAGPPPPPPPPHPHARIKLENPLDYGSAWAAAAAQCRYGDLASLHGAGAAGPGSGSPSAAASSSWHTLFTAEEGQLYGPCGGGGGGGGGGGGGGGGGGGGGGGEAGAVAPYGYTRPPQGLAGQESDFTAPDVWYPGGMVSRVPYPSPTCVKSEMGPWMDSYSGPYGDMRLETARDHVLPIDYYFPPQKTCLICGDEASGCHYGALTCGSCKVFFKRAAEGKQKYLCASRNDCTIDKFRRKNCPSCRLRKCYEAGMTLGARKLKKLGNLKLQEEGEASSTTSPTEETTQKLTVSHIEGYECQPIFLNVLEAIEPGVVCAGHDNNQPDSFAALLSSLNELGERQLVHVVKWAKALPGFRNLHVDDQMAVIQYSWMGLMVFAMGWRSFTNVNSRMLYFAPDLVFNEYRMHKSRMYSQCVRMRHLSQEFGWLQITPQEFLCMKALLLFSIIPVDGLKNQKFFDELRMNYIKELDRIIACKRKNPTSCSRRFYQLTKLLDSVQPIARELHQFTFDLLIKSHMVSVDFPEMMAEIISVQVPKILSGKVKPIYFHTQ

In test [1] the target is Growth hormone secretagogue receptor type 1 (Homo sapiens, UniProt Q92847).
Test [2] deals with Sodium-dependent dopamine transporter (Homo sapiens, UniProt Q01959).
The target of test [3] is T2, Alpha-2A adrenergic receptor (Homo sapiens, UniProt P08913).
T2 sequence (P08913 whole entry): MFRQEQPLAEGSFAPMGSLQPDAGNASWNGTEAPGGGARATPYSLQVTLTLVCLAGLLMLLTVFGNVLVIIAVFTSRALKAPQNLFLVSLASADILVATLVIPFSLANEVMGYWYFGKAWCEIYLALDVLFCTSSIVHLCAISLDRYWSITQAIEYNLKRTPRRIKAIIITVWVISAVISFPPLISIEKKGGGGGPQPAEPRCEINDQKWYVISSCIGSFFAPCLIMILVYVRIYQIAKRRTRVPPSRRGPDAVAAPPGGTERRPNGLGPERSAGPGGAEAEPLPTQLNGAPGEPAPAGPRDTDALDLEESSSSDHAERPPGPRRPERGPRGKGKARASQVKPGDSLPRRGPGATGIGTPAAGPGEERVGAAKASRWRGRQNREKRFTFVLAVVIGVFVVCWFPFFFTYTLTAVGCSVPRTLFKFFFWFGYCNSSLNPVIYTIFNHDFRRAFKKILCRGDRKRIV
The class given is functional, cell-based.

The target of test [4] is T3, 5-hydroxytryptamine receptor 1A (Homo sapiens, UniProt P08908).
T3 sequence (P08908 whole entry): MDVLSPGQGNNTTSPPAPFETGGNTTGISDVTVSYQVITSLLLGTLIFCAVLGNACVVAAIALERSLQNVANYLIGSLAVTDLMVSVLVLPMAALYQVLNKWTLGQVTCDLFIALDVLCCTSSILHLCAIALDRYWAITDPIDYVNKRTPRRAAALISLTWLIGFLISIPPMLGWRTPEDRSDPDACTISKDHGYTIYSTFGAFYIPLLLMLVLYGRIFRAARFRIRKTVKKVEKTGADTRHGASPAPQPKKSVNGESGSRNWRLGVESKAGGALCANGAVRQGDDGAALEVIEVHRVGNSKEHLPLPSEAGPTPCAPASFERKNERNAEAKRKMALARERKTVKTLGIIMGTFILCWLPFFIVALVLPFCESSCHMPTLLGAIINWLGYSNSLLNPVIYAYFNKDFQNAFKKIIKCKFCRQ
Format: functional, cell-based.

For test [5], the target named is T3, 5-hydroxytryptamine receptor 1A. Format: functional, cell-based. The source holds these as a separate data set.

A value given as a limit tells only on which side of the number the result lay.
Further: assay procedure not described here.

Chain of Bile salt export pump (O95342 whole entry): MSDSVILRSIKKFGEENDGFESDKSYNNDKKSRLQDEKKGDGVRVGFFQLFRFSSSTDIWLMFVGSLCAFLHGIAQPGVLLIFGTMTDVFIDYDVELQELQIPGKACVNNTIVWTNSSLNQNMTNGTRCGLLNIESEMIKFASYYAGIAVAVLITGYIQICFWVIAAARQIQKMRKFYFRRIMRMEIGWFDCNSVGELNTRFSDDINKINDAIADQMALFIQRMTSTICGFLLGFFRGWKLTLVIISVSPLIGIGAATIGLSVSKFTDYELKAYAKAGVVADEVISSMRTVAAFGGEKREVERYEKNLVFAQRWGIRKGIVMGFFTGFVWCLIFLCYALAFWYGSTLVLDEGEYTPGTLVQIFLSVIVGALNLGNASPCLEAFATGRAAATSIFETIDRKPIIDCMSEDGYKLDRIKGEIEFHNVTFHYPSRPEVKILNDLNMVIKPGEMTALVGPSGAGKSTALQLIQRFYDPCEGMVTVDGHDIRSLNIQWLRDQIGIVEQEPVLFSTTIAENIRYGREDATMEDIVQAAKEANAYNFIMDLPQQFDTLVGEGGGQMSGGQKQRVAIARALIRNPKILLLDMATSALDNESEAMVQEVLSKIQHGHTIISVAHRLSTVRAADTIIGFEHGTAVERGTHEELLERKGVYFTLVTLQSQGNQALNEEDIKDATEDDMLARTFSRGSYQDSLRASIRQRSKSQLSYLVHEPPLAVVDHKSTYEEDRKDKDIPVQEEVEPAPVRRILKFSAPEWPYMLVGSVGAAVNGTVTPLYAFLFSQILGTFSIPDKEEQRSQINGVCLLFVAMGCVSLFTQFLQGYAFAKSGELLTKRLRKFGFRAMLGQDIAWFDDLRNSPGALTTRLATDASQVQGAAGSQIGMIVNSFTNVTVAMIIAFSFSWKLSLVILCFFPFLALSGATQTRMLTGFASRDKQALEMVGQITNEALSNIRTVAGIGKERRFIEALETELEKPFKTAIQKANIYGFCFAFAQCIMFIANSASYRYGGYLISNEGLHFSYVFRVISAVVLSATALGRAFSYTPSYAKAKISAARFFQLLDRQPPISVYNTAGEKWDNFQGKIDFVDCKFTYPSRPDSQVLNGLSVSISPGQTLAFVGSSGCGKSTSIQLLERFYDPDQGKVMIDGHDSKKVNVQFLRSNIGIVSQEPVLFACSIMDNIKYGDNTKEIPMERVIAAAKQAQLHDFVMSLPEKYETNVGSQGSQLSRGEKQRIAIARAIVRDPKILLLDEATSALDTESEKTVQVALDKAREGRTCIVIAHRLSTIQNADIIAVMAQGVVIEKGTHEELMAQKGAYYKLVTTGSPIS
Chain of Growth hormone secretagogue receptor type 1 (Q92847 whole entry): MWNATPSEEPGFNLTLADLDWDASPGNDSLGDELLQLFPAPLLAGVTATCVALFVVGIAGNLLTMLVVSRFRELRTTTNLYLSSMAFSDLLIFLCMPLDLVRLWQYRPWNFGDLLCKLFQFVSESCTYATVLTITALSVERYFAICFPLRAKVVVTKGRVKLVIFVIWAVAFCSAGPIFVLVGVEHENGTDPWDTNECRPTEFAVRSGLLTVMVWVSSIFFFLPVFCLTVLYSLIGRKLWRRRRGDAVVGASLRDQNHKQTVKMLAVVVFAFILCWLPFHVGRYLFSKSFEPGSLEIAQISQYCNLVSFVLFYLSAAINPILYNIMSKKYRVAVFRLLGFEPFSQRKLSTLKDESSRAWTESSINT
Chain of Sodium-dependent dopamine transporter (Q01959 whole entry): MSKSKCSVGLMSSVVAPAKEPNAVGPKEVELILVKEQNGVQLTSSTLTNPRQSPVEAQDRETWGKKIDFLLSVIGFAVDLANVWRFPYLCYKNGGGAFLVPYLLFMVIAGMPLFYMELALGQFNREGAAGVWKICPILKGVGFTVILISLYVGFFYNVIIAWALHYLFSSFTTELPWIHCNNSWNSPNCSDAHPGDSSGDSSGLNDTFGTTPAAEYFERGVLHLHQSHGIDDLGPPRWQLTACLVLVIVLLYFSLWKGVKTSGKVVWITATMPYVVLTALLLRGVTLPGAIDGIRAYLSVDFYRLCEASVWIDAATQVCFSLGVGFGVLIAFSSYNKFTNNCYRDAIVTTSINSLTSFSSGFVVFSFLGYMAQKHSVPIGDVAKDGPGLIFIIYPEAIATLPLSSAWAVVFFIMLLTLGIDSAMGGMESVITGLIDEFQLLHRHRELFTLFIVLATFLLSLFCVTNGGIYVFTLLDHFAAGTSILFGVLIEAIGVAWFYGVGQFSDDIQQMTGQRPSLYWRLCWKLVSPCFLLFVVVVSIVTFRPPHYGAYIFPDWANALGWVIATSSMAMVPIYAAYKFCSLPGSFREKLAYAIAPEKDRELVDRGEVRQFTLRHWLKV

The term AC50 denotes the concentration giving half of the maximal activity seen. For the compound `CC(=O)NO` [ACETOHYDROXAMIC ACID], the AC50 at Bile salt export pump is above 300 µM; on Androgen receptor, above 30 µM.
`C[C@H]1CN(C[C@H](Cc2ccccc2)C(=O)NCC(=O)O)CC[C@@]1(C)c1cccc(O)c1` [ALVIMOPAN]: the figures for the AC50 at Bile salt export pump and at Androgen receptor were above 300 µM and above 30 µM, respectively.
As for `O=C(O)Cc1ccccc1Nc1c(Cl)cccc1Cl` [DICLOFENAC], the concentration at half-maximal activity (AC50) at Bile salt export pump was above 300 µM; on Androgen receptor it was above 3 µM; in test [1], above 30 µM; in test [2], above 30 µM; in test [3] it was above 10 µM; in test [4] it was above 10 µM. For the same compound, in test [5], the AC50 was above 10 µM.
As for `Cc1ccc(C)c(OCCCC(C)(C)C(=O)O)c1` [GEMFIBROZIL], the AC50 on Bile salt export pump is above 300 µM; at Androgen receptor, above 30 µM; in test [1], above 30 µM; in test [2], above 10 µM; in test [3] it was above 10 µM; in test [4] it was above 10 µM. In addition, the half-maximal activity concentration (AC50) in test [5] was above 10 µM.
In the case of `CN(C)c1ccc(O)c2c1C[C@H]1C[C@H]3[C@H](N(C)C)C(O)=C(C(N)=O)C(=O)[C@@]3(O)C(O)=C1C2=O` [MINOCYCLINE], the concentration at half-maximal activity (AC50) is 83 µM on Bile salt export pump and above 30 µM at Androgen receptor.
In the case of `C=CC(=O)Nc1cccc(Oc2nc(Nc3ccc(N4CCN(C)CC4)cc3)nc3ccsc23)c1` [OLMUTINIB], the AC50 on Bile salt export pump is 13 µM; at Androgen receptor, above 30 µM.
In the case of `Cc1ccc(C(=O)c2ccc(CC(=O)O)n2C)cc1` [TOLMETIN], the concentration at half-maximal activity (AC50) on Bile salt export pump was above 300 µM; at Androgen receptor, above 30 µM.
